Measured values: patent US9604997B2, “Peri-carbinols” (ALDEXA THERAPEUTICS, INC., priority 2012, dated 2017)

Columns and labels:
[1] = RAL depletion kinetics by drug in rod outer segment preparation; type: biochemical, bovine; details: for Kapp, apparent equilibrium constant of RAL depletion by drug: rod outer segment prep containing 64 μM opsin at 37° C.; for kapp, apparent second order rate constant of RAL depletion by drug / ΔGapp, apparent free energy change of RAL depletion by drug: rod outer segment preparation containing 64 μM opsin at 37° C.; for ΔGapp, apparent free energy change of RAL depletion by drug: ΔGapp=−RT ln Kapp
From the text: The parameters associated with the analysis of RAL depletion kinetics are as follows:
[drawing 47] kapp: apparent second order rate constant of RAL depletion by drug. Kapp: apparent equilibrium constant of RAL depletion by drug.
[formula] ΔGapp: apparent free energy change of RAL depletion by drug. ΔGapp=−RT ln Kapp (2) KT: equilibrium constant of tautomerism from imine (ring opened) to oxaminal (ring closed).
Determination of kapp, Kapp and ΔGapp in rod outer segments. Frozen bovine rod outer segment preparation (64 μM of opsin) was thawed and vortexed thoroughly. A 200 μL aliquot of this sample was transferred into a 0.5 mL Eppendorf tube. To it was added 10 μL of 20 mM drug stock solution in EtOH, and the mixture vortexed for 1 min. The tube was incubated at 37° C. in a Thermo Scientific microprocessor controlled 280 series water bath for 3 min before 5 μL freshly prepared 2.4 mM RAL solution in EtOH was added (the nominal starting concentrations of drug and RAL are 1.00 mM and 60 μM, respectively). After vortexing for 1 min, the tube was incubated at 37° C. and aliquots of the reaction mixture (25 μL each) were taken periodically and added onto 10 mg of solid NaBH4 in a 0.5 mL Eppendorf tube. To the latter was added 400 μL of 2:1 (v/v) EtOH/HOAc. The reduction mixture was vortexed for 1 min and centrifuged. The supernatant was separated, and analyzed by HPLC using a standard HPLC method: • Instrument: HPLC-PE-97 • Column: Waters Sunfire C18 3.5 μm/4.6×100 mm column • Solvent A: 0.05% HCOOH/95% HPLC grade water/5% HPLC grade MeCN • Solvent B: 0.05% HCOOH HPLC grade MeCN • Pump program: 0-3 min 5-100% B, 3-30 min 100% B, 31-32 min 100%-5% B, 32-35 min 5% B • Flow rate: 1 mL/min • Detector wavelengths: 329 and 250 nm • Reference wavelength: 400 nm • Injection volume: 50 μL.
The RAL depletion percentages were calculated by normalization of retinol (ROL) and RAL-drug peak integrals, which were then plotted against reaction time. Least squares fit of the RAL depletion plot according to pseudo-first order kinetics yielded observed first order rate constant kobsd, and kapp is calculated according to kobsd=kapp[drug]. Kapp was calculated from the equilibrium concentrations of free RAL, free drug and RAL-drug according to equation (1). ΔGapp was calculated according to equation (2).

[2] = Imine/oxaminal tautomerism of RAL-drug adducts by 1H NMR in CDCl3; type: physicochemical; details: in CDCl3 at 25° C.; for ΔGT, free energy change of tautomerism from imine to oxaminal (ring closed): ΔGT=−RT ln KT
Protocol: [formula] ΔGT: free energy change of tautomerism from imine to oxaminal. ΔGT=−RT ln KT (4) General Methods.
Preparation of the adducts RAL-1, RAL-2 and RAL-3 of RAL with Compounds 1, 2 and 3. Mixtures of 25.6 mg (0.09 mmol) RAL and 0.11 mmol of either Compound 1 or 2, or Compound 3 (2-[3-amino-6-chloroquinolin-2-yl]propan-2-ol, wherein the carbinol has no peri-interaction), in 1 mL dry benzene were stirred in the dark under argon at room temperature for 1 hr. The mixtures were evaporated to dryness and the residues evaporated twice from 2 mL benzene. The residues were dissolved in 1 mL benzene, allowed to stand 1 hr at room temperature and evaporated to dryness. The residues were evaporated from benzene (3×2 mL), redesolved in 0.5 mL dry benzene, and the solutions loaded on silica gel columns. The columns were first eluted with hexanes, and further eluted with 50:1 (v/v) hexanes-ethyl acetate. The fractions containing the adducts were evaporated to dryness to provide pure RAL-1, RAL-2 and RAL-3. The adducts were dissolved in 0.8 mL dry CDCl3, and the ratio of imine and oxaminal tautomers were determined from their ^1H NMR spectra. The values of KT and ΔGT were calculated according to equations (3) and (4).

| SMILES | Kapp, apparent equilibrium constant of RAL depletion by drug [1] | kapp, apparent second order rate constant of RAL depletion by drug [1] [M⁻¹ s⁻¹] | ΔGapp, apparent free energy change of RAL depletion by drug [1] [kcal/mol] | KT, equilibrium constant of tautomerism from imine to oxaminal (ring closed) [2] | ΔGT, free energy change of tautomerism from imine to oxaminal (ring closed) [2] |
| --- | --- | --- | --- | --- | --- |
| CC(C)(O)c1c(N)cnc2ccc(Cl)c(F)c12 [Compound 1, 2-(3-amino-6-chloro-5-fluoroquinolin-4-yl)propan-2-ol] | >2 × 10^7 | 0.8556 | <-10 | >>1000 | <<−4 kcal/mol |
| CC(C)(O)c1c(N)cnc2ccc(Cl)cc12 [Compound 2, 2-(3-amino-6-chloroquinolin-4-yl)propan-2-ol] | >2 × 10^7 | 0.5278 | <-10 | >>1000 | <<−4 kcal/mol |
| CC(C)(O)c1nc2ccc(Cl)cc2cc1N [Compound 3, 2-[3-amino-6-chloroquinolin-2-yl]propan-2-ol, reference compound] | 1.55 × 10^5 | 0.9917 | -7.4 | 1.3 | -0.155 kcal/mol |
